According to patent US10617693B2, “Methods of treating and/or preventing actinic keratosis” (Athenex, Inc., priority 2017, dated 2020):

Legend:
Format in all cases: in vivo, human
[1] = test system: AK lesions on the dorsal forearm; assay: Phase 1 study KX01-AK-01-US: AK lesion counts and clearance
Protocol: KX-01 was administered topically on treatment days. […] Standardized photography of the treatment area was performed.

[2] = test system: AK lesions on the face or scalp; assay: Phase 2a study KX01-AK-002: AK lesion counts and clearance at day 57, 0.5 mg KX-01 on 25 cm^2; conditions: for Subjects with 100% clearance of AK lesions on day 57 / Subjects with at least 75% reduction of AK lesions on day 57 / AK lesion count, median: Cohort 1 (5-day), interim
From the text: An ongoing Phase 2a, open-label, multicenter, activity and safety study of KX-01 administered topically in subjects with AK on the face or scalp is described herein. […] Secondary objectives are to assess the activity of KX-01 administered topically during Days 1-57 based on reduction of AK lesion counts from baseline, assess the safety and tolerability and pharmacokinetics, and contrast the dose regimens (5-day treatment with 3-day treatment) in terms of activity and safety in subjects with AK on the face or scalp. This uncontrolled, nonrandomized trial is being conducted at 16 investigational sites in the United States. Enrollment is sequential for 2 cohorts of approximately 80 subjects each. Enrollment is closed for Cohort 1 and ongoing for Cohort 2. The two treatment cohorts are summarized below: • Cohort 1: 0.5 mg KX-01 administered topically to a contiguous treatment area of 25 cm^2 with 4-8 clinically typical AK lesions for 5 consecutive days • Cohort 2: 0.5 mg KX-01 administered topically to a contiguous treatment area of 25 cm^2 with 4-8 clinically typical AK lesions for 3 consecutive days
0.5 mg KX-01 is administered topically to an area of 25 cm^2 on the face or scalp by site staff on treatment days. […] AK lesion counts are recorded at baseline, days 8, 15, 29, and 57. […] Standardized photography of treatment area is performed at baseline, day 8 and day 57. Plasma samples are being collected at preplanned time points on days 1 and 5 for Cohort 1, and on days 1 and 3 for Cohort 2.
The Phase 2a trial described in Example 2a was completed with 84 eligible subjects enrolled in each of two cohorts: one cohort was subjected to the treatment for 5 consecutive days, and the other cohort was subjected to the treatment for 3 consecutive days. The results are described below and in FIG. 5.

[3] = Plasma pharmacokinetics after topical administration, LC-MS/MS
Protocol: KX-01 was tested in adult subjects with actinic keratosis of the dorsal forearm (Example 1) and actinic keratosis on the face or scalp (Examples 2a and 2b). In Example 1, the plasma pharmacokinetics (PK) of KX-01 following topical administration was evaluated by collection of plasma on days 1 and 3 of the 3-day regimens and on days 1 and 5 of the 5-day regimens (Table 12). In Examples 2a and 2b, plasma samples were collected on days 1 and 5 of Cohort 1 (Table 13). Plasma samples at similar time points were collected on days 1 and 3 of Cohort 2. KX-01 was measured in human plasma using a validated LC-MS/MS assay with a lower limit of quantification (LLOQ) of 0.1 ng/mL.

O=C(Cc1ccc(-c2ccc(OCCN3CCOCC3)cc2)cn1)NCc1ccccc1 [KX-01]
Complete Clearance on Day 45 (100% reduction in AK lesions vs Baseline), n/N (%) ([1]; Cohort 2: 2 mg/100 cm^2 QD x3 days): 0/10 | AK lesion count, median (min, max) ([1]; Day 1 (Baseline), Cohort 1: 0.5 mg/25 cm^2 QD x3 days): 5.0 (4, 5) | AK lesion count, median (min, max) ([1]; Day 1 (Baseline), Cohort 2: 2 mg/100 cm^2 QD x3 days): 11.5 (8, 16) | AK lesion count, median (min, max) ([1]; Day 1 (Baseline), Cohort 3: 0.5 mg/25 cm^2 QD x5 days): 6.0 (5, 6) | AK lesion count, median (min, max) ([1]; Day 1 (Baseline), Cohort 4: 2 mg/100 cm^2 QD x5 days): 11.0 (10, 16) | AK lesion count, median (min, max) ([1]; Day 4, Cohort 1: 0.5 mg/25 cm^2 QD x3 days): 5.0 (4, 5) | AK lesion count, median (min, max) ([1]; Day 4, Cohort 2: 2 mg/100 cm^2 QD x3 days): 9.0 (6, 16) | AK lesion count, median (min, max) ([1]; Day 10, Cohort 1: 0.5 mg/25 cm^2 QD x3 days): 5.0 (4, 5) | AK lesion count, median (min, max) ([1]; Day 10, Cohort 2: 2 mg/100 cm^2 QD x3 days): 7.0 (6, 11) | AK lesion count, median (min, max) ([1]; Day 10, Cohort 3: 0.5 mg/25 cm^2 QD x5 days): 5.0 (5, 6) | AK lesion count, median (min, max) ([1]; Day 10, Cohort 4: 2 mg/100 cm^2 QD x5 days): 10.0 (10, 10) | AK lesion count, median (min, max) ([1]; Day 17, Cohort 1: 0.5 mg/25 cm^2 QD x3 days): 4.5 (3, 5) | AK lesion count, median (min, max) ([1]; Day 17, Cohort 2: 2 mg/100 cm^2 QD x3 days): 7.0 (5, 15) | AK lesion count, median (min, max) ([1]; Day 17, Cohort 3: 0.5 mg/25 cm^2 QD x5 days): 5.0 (4, 6) | AK lesion count, median (min, max) ([1]; Day 17, Cohort 4: 2 mg/100 cm^2 QD x5 days): 10.0 (10, 11) | AK lesion count, median (min, max) ([1]; Day 31, Cohort 1: 0.5 mg/25 cm^2 QD x3 days): 3.5 (1, 5) | AK lesion count, median (min, max) ([1]; Day 31, Cohort 2: 2 mg/100 cm^2 QD x3 days): 7.0 (1, 15) | AK lesion count, median (min, max) ([1]; Day 31, Cohort 3: 0.5 mg/25 cm^2 QD x5 days): 1.0 (0, 6) | AK lesion count, median (min, max) ([1]; Day 31, Cohort 4: 2 mg/100 cm^2 QD x5 days): 6.0 (0, 11) | AK lesion count, median (min, max) ([1]; Day 45, Cohort 1: 0.5 mg/25 cm^2 QD x3 days): 2.5 (0, 4) | AK lesion count, median (min, max) ([1]; Day 45, Cohort 2: 2 mg/100 cm^2 QD x3 days): 4.0 (1, 10) | AK lesion count, median (min, max) ([1]; Day 45, Cohort 3: 0.5 mg/25 cm^2 QD x5 days): 0.5 (0, 4) | AK lesion count, median (min, max) ([1]; Day 45, Cohort 4: 2 mg/100 cm^2 QD x5 days): 4.5 (0, 12) | Change in AK lesion counts over time ([1]; all 4 cohorts): reductions in mean baseline AK lesion counts over time | Activity of 5-day versus 3-day regimen ([1]; rates of complete and partial clearance): 5-day regimen may provide better activity than the 3-day regimen | Activity compared to Picato Phase 3 studies ([2]; 5-day regimen, cross-study tabulation): may be comparable | Subjects with 100% clearance of AK lesions on day 57 ([2]; face, 35 subjects): 43% | Subjects with at least 75% reduction of AK lesions on day 57 ([2]; face, 35 subjects): 60% | Subjects with 100% clearance of AK lesions on day 57 ([2]; overall, 67 subjects): 36% | Subjects with at least 75% reduction of AK lesions on day 57 ([2]; overall, 67 subjects): 51% | Subjects with 100% clearance of AK lesions on day 57 ([2]; scalp, 32 subjects): 28% | Subjects with at least 75% reduction of AK lesions on day 57 ([2]; scalp, 32 subjects): 41% | AK lesion count, median ([2]; Day 1): 6.0 | AK lesion count, median ([2]; Day 8): 5.0 | AK lesion count, median ([2]; Day 15): 4.0 | AK lesion count, median ([2]; Day 29): 2.0 | AK lesion count, median ([2]; Day 57): 2.0 | Activity of 5-day versus 3-day regimen ([2]; Examples 1, 2a and 2b): greater activity than the 3-day regimen | Plasma concentration, back-up sample ([3]; Day 5, 0.5 hours post-dose, back-up of the 23 ng/mL sample): BLQ | Plasma concentration, aberrant primary sample ([3]; Day 5, 0.5 hours post-dose, likely cross contamination): 23 ng/mL | Plasma concentration, back-up sample ([3]; Day 5, 1 hour post-dose, back-up of the 44 ng/mL sample): 0.351 ng/mL | Plasma concentration, aberrant primary sample ([3]; Day 5, 1 hour post-dose, likely cross contamination): 44 ng/mL | Plasma samples above the limit of quantification ([3]; KX01-AK-002, after 1 day of treatment, of 336 samples): 15 | Measurable plasma concentrations ([3]; KX01-AK-002, all except three aberrant samples): below 0.7 ng/mL | Subjects with measurable plasma concentrations at 4 hours post-dose on Day 5 ([3]; KX01-AK-002 Cohort 1): 42 out of 84 | Subjects with quantifiable concentrations prior to the dose on Day 5 ([3]; KX01-AK-002 Cohort 1): 8 of 84 | Plasma concentration, back-up sample ([3]; back-up of the third aberrant sample): 30 ng/mL | Plasma concentrations below the level of quantification (BLQ) ([3]; both studies): 75% | concentration at 5 days ([3]; human, plasma, up to 5 consecutive days of topical treatment, read-out: Systemic exposure (plasma concentration)): < 1 ng/mL | Apparent plasma concentration, aberrant sample ([3]; third aberrant sample, likely cross contamination): above 12,500 ng/mL | Systemic exposure (plasma concentration) ([3]; up to 5 consecutive days of topical treatment): < 1 ng/mL
